Legend:
Assay type in all cases: cell-based
MCF-7 cells = assay: Inhibition of cell proliferation of MCF-7 cells (CCK-8, 9 days); conditions: treated for 9 days, CCK-8 kit (Table 6)
In short: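 MCF-7 cells seeded at 800 cells/well in DMEM with 10% FBS, exposed to a range of compound concentrations for 9 days at 37°C, 5% CO2. Viability read by CCK-8; IC50 derived for proliferation inhibition.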

ERα [1] = biological target: T1, ERα (Homo sapiens, UniProt P03372); assay: Degradation of ERα in T-47D cells (immunoblotting, 4 h); set-up: host or cells: T-47D
T1 sequence (P03372 1-595): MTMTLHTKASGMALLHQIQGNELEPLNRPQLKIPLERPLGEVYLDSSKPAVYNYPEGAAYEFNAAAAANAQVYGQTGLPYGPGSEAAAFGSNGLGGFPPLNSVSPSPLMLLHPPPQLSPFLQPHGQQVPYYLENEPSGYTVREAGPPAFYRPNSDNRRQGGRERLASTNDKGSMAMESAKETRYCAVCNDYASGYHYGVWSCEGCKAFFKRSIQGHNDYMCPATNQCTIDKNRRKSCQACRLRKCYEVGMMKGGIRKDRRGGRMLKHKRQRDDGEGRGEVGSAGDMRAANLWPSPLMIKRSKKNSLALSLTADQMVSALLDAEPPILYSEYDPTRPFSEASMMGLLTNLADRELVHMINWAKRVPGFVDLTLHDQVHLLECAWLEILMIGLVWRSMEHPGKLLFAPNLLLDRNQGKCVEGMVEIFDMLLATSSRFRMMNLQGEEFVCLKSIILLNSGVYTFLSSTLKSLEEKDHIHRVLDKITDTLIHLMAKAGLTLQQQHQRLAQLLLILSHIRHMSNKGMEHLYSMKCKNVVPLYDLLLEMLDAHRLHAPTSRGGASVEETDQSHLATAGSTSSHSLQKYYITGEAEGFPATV
In short: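 T-47D cells were treated with compound (final 0.15-1000 nM, DMSO) for 4 h at 37°C, 5% CO2. Cells were lysed in RIPA buffer with protease inhibitor, and ERα protein in the cleared lysate was measured by immunoblotting.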

ERα [2] = biological target: T1, ERα; assay: Degradation of ERα in MCF-7 cells (immunoblotting, 4 h)
In short: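 MCF-7 cells treated 4 h at 37°C with compounds at 0.15-1000nM final. ERα in lysates measured by immunoblot, with band grayscale normalized to an internal reference protein. Degradation rate calculated against DMSO-treated control.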

SMILES | IC50 (MCF-7 cells) [nM] | Degradation rate (%) of ERα in T-47D cells (ERα [1]; 1nM compound) [%] | Degradation rate (%) of ERα in T-47D cells (ERα [1]; 10nM compound) [%] | Degradation rate (%) of ERα in MCF-7 cells (ERα [2]; 1nM compound) [%] | Degradation rate (%) of ERα in MCF-7 cells (ERα [2]; 10nM compound) [%]
O=C1CCC(N2C(=O)c3ccc4c(c3C2=O)OCC42CCN(C3CCC4(CC3)CN(c3ccc([C@@H]5c6ccc(O)cc6CC[C@@H]5c5ccccc5)cc3)C4)CC2)C(=O)N1 (some centres unmarked) [L7] | 510 | 11 | 34 | 4 | -4
O=C1CCC(N2Cc3c(ccc4c3OCC43CCN(C4CCN(CC5CCN(c6ccc([C@@H]7c8ccc(O)cc8CC[C@@H]7c7ccccc7)cc6)CC5)CC4F)CC3)C2=O)C(=O)N1 (some centres unmarked) [J5] | 4.63 | 46 | 81 | 40 | 78
O=C1CCC(N2Cc3ccc4c(c3C2=O)OCC2(CCN(C3CC5(CCN(c6ccc([C@@H]7c8ccc(O)cc8CC[C@@H]7c7ccccc7)cc6)CC5)C3)CC2)C4)C(=O)N1 (some centres unmarked) [L9] | 1420 | 15 | 49 | 10 | 29
CN(CC(=O)N1CCC2(CC1)COc1c2ccc2c1CN(C1CCC(=O)NC1=O)C2=O)C1CCC2(CC1)CCN(c1ccc([C@@H]3c4ccc(O)cc4CC[C@@H]3c3ccccc3)cc1)CC2 (some centres unmarked) [H51] | 153 | 49 | 79 | 46 | 75
O=C1CCC(N2Cc3c(ccc4c3OCC43CCN(C(=O)CN4CCC5(CC4)CCN(c4ccc([C@@H]6c7ccc(O)cc7CC[C@@H]6c6ccccc6)cc4)C5)CC3)C2=O)C(=O)N1 (some centres unmarked) [A75] | 7.71 | 53 | 76 | 16 | 14
O=C1CCC(N2Cc3c(ccc4c3OCC43CCN(C(=O)CN4CCC5(CCN(c6ccc([C@@H]7c8ccc(O)cc8CC[C@@H]7c7ccccc7)cc6)CC5)C4)CC3)C2=O)C(=O)N1 (some centres unmarked) [A63] | 3.24 | 67 | 80 | 69 | 68
O=C1CCC(N2Cc3cc4c(cc3C2=O)OC2(CC4)CCN(C(=O)CN3CCC4(CC3)CCN(c3ccc([C@@H]5c6ccc(O)cc6CC[C@@H]5c5ccccc5)cc3)CC4)CC2)C(=O)N1 (some centres unmarked) [A67] | 3.96 | 26 | 76 | 27 | 67
C[C@@H]1Cc2c([nH]c3ccccc23)[C@@H](c2c(F)cc(N3CCC(N4CC[C@@H](N5CCC6(CC5)COc5c6ccc6c5CN(C5CCC(=O)NC5=O)C6=O)[C@@H](F)C4)CC3)cc2F)N1CC(F)F (some centres unmarked) [D11] | 19.2 | 52 | 82 | 6 | 66
C[C@@H]1Cc2c([nH]c3ccccc23)[C@@H](c2c(F)cc(N3CCC(C(=O)N4CCC(N5CCC6(CC5)COc5c6ccc6c5CN(C5CCC(=O)NC5=O)C6=O)[C@H](F)C4)CC3)cc2F)N1CC(F)F (some centres unmarked) [D9] | 10.8 | 52 | 82 | 22 | 55
O=C1CCC(N2Cc3c(ccc4c3OCC43CCN(C(=O)CN4CCN(C(=O)C5CCN(c6ccc([C@@H]7c8ccc(O)cc8CC[C@@H]7c7ccccc7)cc6)CC5)CC4)CC3)C2=O)C(=O)N1 (some centres unmarked) [K43] | 3070 | 66 | 84 | 23 | 69
O=C1CCC(N2Cc3c(ccc4c3OCC43CCN(C(=O)CN4CC5(C4)CN(c4ccc([C@@H]6c7ccc(O)cc7CC[C@@H]6c6ccccc6)cc4)C5)CC3)C2=O)C(=O)N1 (some centres unmarked) [B20] | 1630 | 47 | 73 | 42 | 64
O=C1CCC(N2Cc3c(ccc4c3OCC43CCN(C4CC5CC4CN5C4CC5(CCN(c6ccc([C@@H]7c8ccc(O)cc8CC[C@@H]7c7ccccc7)cc6)CC5)C4)CC3)C2=O)C(=O)N1 (some centres unmarked) [D3] | 6.58 | 34 | 73 | 38 | 60
O=C1CCC(N2Cc3c(ccc4c3OCC43CCN(C(=O)C4CCC(CN5CCN(c6ccc(C7c8ccc(O)cc8CCC7c7ccccc7)cc6)CC5)CC4)CC3)C2=O)C(=O)N1 (centres unmarked) [G16] | 3.07 | 68 | 81 | 54 | 70
O=C1CCC(N2C(=O)c3ccc4c(c3C2=O)OCC42CCN(CC3CCN(c4ccc([C@@H]5c6ccc(O)cc6CC[C@@H]5c5ccccc5)cc4)CC3)CC2)C(=O)N1 (some centres unmarked) [H4] | 7740 | -41 | -48 | -32 | -7
O=C1CCC(N2Cc3c(ccc4c3OCC43CCN(C4CCN(C(=O)C5CCC6(CC5)CCN(c5ccc([C@@H]7c8ccc(O)cc8CC[C@@H]7c7ccccc7)cc5)CC6)CC4)CC3)C2=O)C(=O)N1 (some centres unmarked) [B18] | 15.6 | 54 | 79 | 36 | 64
N#CC1(C(=O)N2CCC(N3CCC4(CC3)COc3c4ccc4c3CN(C3CCC(=O)NC3=O)C4=O)CC2)CCN(c2ccc([C@@H]3c4ccc(O)cc4CC[C@@H]3c3ccccc3)cc2)CC1 (some centres unmarked) [K35] | 32.8 | 60 | 72 | 46 | 64
O=C1CCC(N2Cc3c(ccc4c3OCC43CCN(C(=O)[C@H]4CC[C@H](OC5CCN(c6ccc([C@@H]7c8ccc(O)cc8CC[C@@H]7c7ccccc7)cc6)CC5)CC4)CC3)C2=O)C(=O)N1 (some centres unmarked) [D8] | 11400 | 33 | 75 | 9 | 62
O=C1CCC(N2Cc3c(ccc4c3OCC43CCN(C4CN(C(=O)C5CCN(c6ccc([C@@H]7c8ccc(O)cc8CC[C@@H]7c7ccccc7)cc6)CC5)C4)CC3)C2=O)C(=O)N1 (some centres unmarked) [D4] | 3580 | 54 | 79 | 41 | 69
O=C1CCC(N2Cc3c(ccc4c3OCC43CCN(C(=O)[C@H]4C[C@H](OC5CCN(c6ccc([C@@H]7c8ccc(O)cc8CC[C@@H]7c7ccccc7)cc6)CC5)C4)CC3)C2=O)C(=O)N1 (some centres unmarked) [K48] | 9210 | 47 | 80 | 20 | 42
